Test results published in patent publication US8784795B2, “Methods for determining personalized treatment compositions for prostate cancer and breast cancer” (Caldera Health Ltd., priority 2012, dated 2014).

Experiments:
[1] = test system: prostate cancer; details: patients; cited from earlier work
[2] = test system: blood cells; test: Analysis of blood cells treated with Leukine in vivo for changes in perforin levels
Text: […]

[3] = test system: hormone refractory prostate cancer; details: clinical trial; cited from earlier work

## Leukine®: granulocyte-macrophage colony stimulating factor (GM-CSF; also known as sargramostim; trade name Leukine®)
[1]
  control of prostate cancer: long-term control of prostate cancer in a substantial number of patients
[2]
  change in perforin levels of blood cells: major increases

## CC(=O)N1CCN(c2ccc(OCC3COC(Cn4ccnc4)(c4ccc(Cl)cc4Cl)O3)cc2)CC1 (stereo not drawn) [ketoconazole]
[3]
  response rate: 50%
